This note sets out measurements from patent US9725434B2, “Hydroxy-substituted orexin receptor antagonists” (MERCK SHARP & DOHME CORP., priority 2013, dated 2017).

Test [1] concerns the target human orexin-2 receptor (hOX2R) (Homo sapiens (Human), UniProt O43614). The test can be described thus: FLIPR Ca2+ Flux Assay, hOX2R. The note with it: CHO cells expressing hOX2R; agonist 70 pM Ala-6,12 orexin-A. The format is cell-based. Here is the method: In a typical experiment the OX1 and OX2 receptor antagonistic activity of the compounds of the present invention was determined in accordance with the following experimental method. For intracellular calcium measurements, Chinese hamster ovary (CHO) cells expressing the rat orexin-1 receptor or the human orexin-2 receptor, are grown in Iscove's modified DMEM containing 2 mM L-glutamine, […], 1% hypoxanthine-thymidine supplement, 100 U/ml penicillin, 100 μg/ml streptomycin and 10% heat-inactivated fetal calf serum (FCS). The cells are seeded at 20,000 cells/well into Becton-Dickinson black 384-well clear bottom sterile plates coated with poly-D-lysine. All reagents were from GIBCO-Invitrogen Corp. The seeded plates are incubated overnight at 37° C. and 5% CO2. Ala-6,12 human orexin-A as the agonist is prepared as a 1 mM stock solution in 1% bovine serum albumin (BSA) and diluted in assay buffer (HBSS containing 20 mM HEPES, 0.1% BSA and 2.5 mM probenecid, pH7.4) for use in the assay at a final concentration of 70 pM. Test compounds are prepared as 10 mM stock solution in DMSO, then diluted in 384-well plates, first in DMSO, then assay buffer. On the day of the assay, cells are washed 3 times with 100 μl assay buffer and then incubated for 60 min (37° C., 5% CO2) in 60 μl assay buffer containing 1 μM Fluo-4AM ester, 0.02% pluronic acid, and 1% BSA. The dye loading solution is then aspirated and cells are washed 3 times with 100 μl assay buffer. 30 μl of that same buffer is left in each well. Within the Fluorescent Imaging Plate Reader (FLIPR, Molecular Devices), test compounds are added to the plate in a volume of 25 μl, incubated for 5 min and finally 25 μl of agonist is added. Fluorescence is measured for each well at 1 second intervals for 5 minutes and the height of each fluorescence peak is compared to the height of the fluorescence peak induced by 70 pM Ala-6,12 orexin-A with buffer in place of antagonist. […] Alternatively, compound potency can be assessed by a radioligand binding assay (described in Bergman et. al. Bioorg. Med. Chem. Lett. 2008, 18, 1425-1430) in which the inhibition constant (Ki) is determined in membranes prepared from CHO cells expressing either the OX1 or OX2 receptor. The intrinsic orexin receptor antagonist activity of a compound which may be used in the present invention may be determined by these assays.
(§1) Chinese hamster ovary (CHO) cells expressing the human orexin-1 receptor (hOX1R) or the human orexin-2 receptor (hOX2R) were grown in Iscove's modified DMEM containing 2 mM L-glutamine, […], 1% hypoxanthine-thymidine supplement, 100 U/ml penicillin, 100 μg/ml streptomycin and 10% heat-inactivated fetal calf serum (FCS). The cells were seeded at 20,000 cells/well into Becton-Dickinson black 384-well clear bottom sterile plates coated with poly-D-lysine. All reagents were from GIBCO-Invitrogen Corp. The seeded plates were incubated overnight at 37° C. and 5% CO2. Ala-6,12 human orexin-A, used as the agonist, was prepared as a 1 mM stock solution in 1% bovine serum albumin (BSA) and diluted in assay buffer (HBSS containing 20 mM HEPES, 0.1% BSA and 2.5 mM probenecid, pH7.4) for use in the assay at a final concentration of 70 pM. Test compounds were prepared as 10 mM stock solution in DMSO, then diluted in 384-well plates, first in DMSO, then assay buffer.
On the day of the assay, cells were washed 3× with 100 μl assay buffer and then incubated for 60 minutes (37° C., 5% CO2) in 60 μl assay buffer containing 1 μM Fluo-4AM ester, 0.02% pluronic acid, and 1% BSA. The dye loading solution was then aspirated and cells were washed 3× with 100 μl assay buffer.
(In general: Calcium assays in cells follow changes in intracellular calcium, usually with a dye or a luminescent sensor.)

For test [2], the target named is human orexin-1 receptor (hOX1R) (Homo sapiens, UniProt O43613). As to the kind of experiment: FLIPR Ca2+ Flux Assay, hOX1R. Format: cell-based. The note with it: CHO cells expressing hOX1R; agonist 70 pM Ala-6,12 orexin-A. Here is the method: as §1
On the day of the assay, cells were washed 3× with 100 μl assay buffer and then incubated for 60 minutes (37° C., 5% CO2) in 60 μl assay buffer containing 1 μM Fluo-4AM ester, 0.02% pluronic acid, and 1% BSA. The dye loading solution was then aspirated and cells were washed 3× with 100 μl assay buffer. 30 μl of that same buffer was left in each well. Within the Fluorescent Imaging Plate Reader (FLIPR, Molecular Devices), test compounds were added to the plate in a volume of 25 μl, incubated for 5 minutes, and then 25 μl of agonist was added. Fluorescence was measured for each well at 1 second intervals for 5 minutes, and the height of each fluorescence peak was compared to the height of the fluorescence peak induced by 70 pM of Ala-6,12 orexin-A with buffer in place of test compound.

Chain of human orexin-2 receptor (hOX2R) (O43614 whole entry): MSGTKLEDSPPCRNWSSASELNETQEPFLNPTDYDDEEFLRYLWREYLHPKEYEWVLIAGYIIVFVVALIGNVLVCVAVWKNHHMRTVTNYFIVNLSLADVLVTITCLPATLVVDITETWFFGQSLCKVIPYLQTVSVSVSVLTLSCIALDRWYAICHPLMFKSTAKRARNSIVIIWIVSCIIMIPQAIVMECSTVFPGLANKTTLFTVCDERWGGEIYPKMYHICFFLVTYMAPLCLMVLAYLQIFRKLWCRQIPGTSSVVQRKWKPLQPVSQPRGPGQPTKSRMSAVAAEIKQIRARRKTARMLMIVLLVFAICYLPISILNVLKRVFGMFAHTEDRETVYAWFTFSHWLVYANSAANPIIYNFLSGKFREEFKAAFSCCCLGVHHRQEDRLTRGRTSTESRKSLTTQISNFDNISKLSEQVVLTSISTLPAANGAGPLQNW

What is called IC50 is the point on the concentration scale where inhibition reaches its midpoint. `C[C@@H]1CC[C@@H](Oc2cccc(C(C)(C)O)c2)CN1C(=O)c1ccccc1-n1nccn1` [Example 6, 2-(3-{[(3R,6R)-6-Methyl-1-{[2-(2H-1,2,3-triazol-2-yl)phenyl]carbonyl}piperidin-3-yl]oxy}phenyl)propan-2-ol]: the IC50 in test [1] came to 32 nM; in test [2] it was 10000 nM.
Consider `C[C@@H]1CC[C@@H](Oc2cc(C(C)(C)O)ccc2F)CN1C(=O)c1ccccc1-n1nccn1` [Example 20, 2-(4-Fluoro-3-{[(3R,6R)-6-methyl-1-{[2-(2H-1,2,3-triazol-2-yl)phenyl]carbonyl}piperidin-3-yl]oxy}phenyl)propan-2-ol], for which the IC50 stood at 354 nM in test [1] and 10000 nM in test [2].
In the same order, the values of `CC(O)c1cccc(O[C@@H]2CC[C@@H](C)N(C(=O)c3ccccc3-c3ncccn3)C2)c1` (stereo partly drawn) [Example 3, 1-[3-({(3R,6R)-6-Methyl-1-[(2-pyrimidin-2-ylphenyl)carbonyl]piperidin-3-yl}oxy)phenyl]ethanol] are 119 nM and 4240 nM.
Turning to `C[C@@H]1CC[C@@H](Oc2cccc(C(C)(C)O)c2)CN1C(=O)c1ccsc1-n1nccn1` [Example 37, 2-(3-{[(3R,6R)-6-Methyl-1-{[2-(2H-1,2,3-triazol-2-yl)thiophen-3-yl]carbonyl}piperidin-3-yl]oxy}phenyl)propan-2-ol], the IC50 in test [1] amounted to 45 nM; in test [2], 10000 nM.
Take `CC(O)c1cccc(O[C@@H]2CC[C@@H](C)N(C(=O)c3ccccc3-n3nccn3)C2)c1` (stereo partly drawn) [Example 1, 1-(3-{[(3R,6R)-6-Methyl-1-{[2-(2H-1,2,3-triazol-2-yl)phenyl]carbonyl}piperidin-3-yl]oxy}phenyl)ethanol]: the 50% inhibitory concentration (IC50) in test [1] turned out to be 98 nM; in test [2], 4510 nM.
As to `C[C@@H]1CC[C@@H](Oc2cc([C@](C)(O)C3CC3)ccn2)CN1C(=O)c1ccccc1-n1nccn1` [Example 11, (1R)-1-cyclopropyl-1-(2-{[(3R,6R)-6-methyl-1-{[2-(2H-1,2,3-triazol-2-yl)phenyl]carbonyl}piperidin-3-yl]oxy}pyridin-4-yl)ethanol], the concentration for half-maximal inhibition (IC50) is 14 nM in test [1] and 297 nM in test [2].
In the case of `C[C@@H]1CC[C@@H](Oc2ccc3c(c2)C(C)(O)CC3)CN1C(=O)c1ccccc1-n1nccn1` (stereo partly drawn) [Example 33, 1-Methyl-6-{[(3R,6R)-6-methyl-1-{[2-(2H-1,2,3-triazol-2-yl)phenyl]carbonyl}piperidin-3-yl]oxy}-2,3-dihydro-1H-inden-1-ol], the figures for the IC50 in test [1] and in test [2] were 23 nM and 742 nM, respectively.
